According to patent US20260242390A1, “TOTAL SYNTHESES OF PORTIMINE A AND ANALOGUES THEREOF AS SMALL MOLECULE MODULATORS OF NMD3” (priority 2023, published 2026):
“Also recorded” adds a separate entry of the source. Where two headings read alike, the source gives them in different places.

Test system: Jurkat cells
Experiment: Cell viability / toxicity in Jurkat cells
Type: cell-based, human
Conditions: for IC50: Homo sapiens, read-out: IC50 to Jurkat cells; for cell toxicity in leukemia (Jurkat) cancer cell line: 36-hour treatment; for toxicity to Jurkat cells: pM-nM concentration range (0.23 pM to 1 uM), 12 hr
Source text: FIG. 1. Portimine A is non-toxic to primary human PBMCs. Portimine A and its functional analogs show stereo-selective acute toxicity in cancer cells. […] (B) Structure of portimine related analogs: phenyl-portimine A (Ph-PA, 36) and epi-portimine A (ePA, 38). Structure of fully functionalized portimine A-based epimeric probe pair: portimine A-diazirine-alkyne (PA-DA, 35-2) and epi-portimine A-diazirine-alkyne (ePA-DA, 35-1). (C) Cell viability analysis of portimine A and analogs. […] All presented data as mean of biological replicated experiments (n=3). […]
Structurally related negative control ePA and PB are non-toxic in all cell types in the current concentrate range. PBMCs (25k per well), Jurkat (10k per well). […]
• 1) Portimine A and its functional analogs show stereo-selective acute toxicity in cancer cells (FIG. 1). […] (B) Structure of portimine related analogs: phenyl-portimine A (Ph-PA, 36) and epi-portimine A (ePA, 38). Structure of fully functionalized portimine A-based epimeric probe pair: portimine A-diazirine-alkyne (PA-DA, 35-2) and epi-portimine A-diazirine-alkyne (ePA-DA, 35-1). (C) Cell viability analysis of portimine A and analogs. […] All presented data as mean of biological replicated experiments (n=3). […] Structurally related negative control ePA and PB are non-toxic in all cell types in the current concentrate range. PBMCs (25k per well), Jurkat (10k per well). […] Cell cycle analysis in Jurkat cells (FIG. 2). […] (A) PA and Ph-PA show less toxic to healthy PBMCs compared to Jurkat cells. […] (B) Immunoblot of caspase-3 in Jurkat and PBMCs with indicated conditions. […] (A) Pharmacokinetic studies of mouse intraperitoneal (i.p.) and oral (p.o.) administration for portimine (n=3). […] Impact of PA [0.3 or 1 mg/kg intraperitoneally] on MC38 tumor growth in WT mice (n=6). (C) Kaplan-Myer survival curve of WT MC38 tumor-bearing mice (n=6) after treatment with PA as described in (D). Mice were euthanized when tumor area exceeded 2000 mm^3. Statistical analysis was performed using ANOVA analysis followed by multiple comparisons test, * p≤0.05. Treatment condition: Jurkat (60 M per condition); PA-DA/ePA-DA concentration: 0.5 uM, PA or ePA: 5 uM; Incubate with probe with or without competitors (PA, ePA) for 30 min; UV irradiated for 20 min. (0.5 uM PA-DA add a no-UV condition), Standard pulldown & biotin-enrichment and western blot analysis (Elute condition: 2× sample buffer+500 uM biotin, boil for 20 mins); Primary antibody NMD3 (ProteinTech, 1:150), Actin (BioRad, 1:10000). […] Chemical proteomic profiling with PA-DA in Jurkat cells (A, B, C, G) and HCC1806 cells (D, E, F, H) show NMD3 is the primary target candidate of portimine A. […] (I, J) Confirmation of PA-DA engagement of NMD3 in Jurkat and HCC1806 cells. […] Treatment condition: Jurkat (5M per well). Portimine A concentration: 2 nM-1000 nM; In total treat cell for 12 hours. […] Protein degradation of p53, Mcl1, Bid, Bim, Noxa can be rescued by MG132 or Epoxomicin. (B) NMD3 mRNA increased after PA treatment, but not ePA control compound. […] (A) Immunoblot showing reduced NMD3 levels in shNMD3 Jurkat and HeLa cells. […] Data represents mean±SD of biologically replicated experiments (n=3). […] Cell lysates were fractionated by sucrose gradient (5-50%) and each fraction were analyzed by western blot. eIF6 levels increase in 60S subunit fraction and decrease in ribosome-free fractions after PA treatment. RPS6, a 40S and polysome subunits marker, is decreased in polysome fractions after PA treatment. Results are representative of three independent experiments. […] Relative protein levels in each fraction were normalized to the peak fraction of the indicated protein from the DMSO cells and plotted. Data represents mean±SD of biologically replicated experiments (n=3). Statistical analysis was performed using multiple unpaired Student t-test. * p≤0.05; ** p≤0.01; *** p≤0.005; **** p≤0.0001. […]

| Compound | IC50 (Jurkat, 12 h) [nM] | cell toxicity in leukemia (Jurkat) cancer cell line | toxicity to Jurkat cells | IC50 (after 12 hr, Jurkat 10k per well, 0.23 pM to 1 uM) [nM] |
| --- | --- | --- | --- | --- |
| C=CC1=C[C@@H]2[C@@H]3O[C@]4(CC[C@H](O4)C(C)C[C@@H](O)C3=O)CC(O)C3=NCC[C@@]32CC1 (stereo partly drawn) [PA, portimine A] | ~2 |  |  |  |
| C=CC1=C[C@@H]2[C@@H]3OC4(CC[C@H](O4)C(C)C[C@@H](O)C3=O)CC(=O)C3=NCC[C@@]32CC1 (stereo partly drawn) [PB, portimine B] |  | minimal effects | non-toxic; also recorded: non-toxicity |  |
| CC1C[C@@H](O)C(=O)[C@H]2O[C@]3(CC[C@@H]1O3)CC(O)C1=NCC[C@@]13CCC(c1ccccc1)=C[C@H]23 (stereo partly drawn) [Ph-PA, phenyl-portimine A] |  |  |  | ~2 |
| C=CC1=C[C@@H]2[C@@H]3O[C@]4(CC[C@H](O4)C(C)C[C@@H](O)C3=O)C[C@@H](O)C3=NCC[C@@]32CC1 (stereo partly drawn) [ePA, epi-portimine A] |  | minimal effects | non-toxic; also recorded: non-toxicity |  |
